In patent publication US20250145637A1, “SULFONAMIDE DERIVATIVE, PREPARATION METHOD THEREFOR AND MEDICAL USE THEREOF” (Jiangsu Hengrui Pharmaceuticals Co. Ltd., priority 2021, published 2025):

What was measured:
[1] = Pharmacokinetic evaluation in SD rats; assay type: in vivo; conditions: both sexes, rat, plasma, po, i.g., 2.0 mg/kg; for Vd/F: read-out: Apparent distribution volume Vz/F; for AUC(0-t): read-out: Area under curve AUC0-t; for CL/F: read-out: Clearance rate CL/F; for half-life: read-out: Half-life T½ (converted); for Cmax: read-out: Plasma concentration Cmax
Method: Test Example 5: Pharmacokinetic Evaluation
(§1) SD rats were used as test animals. After intragastric (i.g.) administration of the compounds of the present disclosure to SD rats, the plasma concentrations at different time points were measured by the LC/MS/MS method. The pharmacokinetic behavior of the compounds of the present disclosure in SD rats was studied, and their pharmacokinetic profiles were evaluated.
Compound 2, compound 7, compound 21, and compound 23.
16 SD rats, of which half were male and half female, were evenly divided into 4 groups. The rats were provided by Vital River Laboratory Animal Technology Co., Ltd. The rats were fasted overnight and intragastrically administered the compounds.
(§2) 2.3. Compound Solution Preparation
A certain amount of test compound was weighed out and dissolved in 5% DMSO+5% tween 80+90% normal saline to prepare a 0.2 mg/mL colorless clear solution.
The dose administered was 2.0 mg/kg, and the volume was 10.0 mL/kg.
(§3) 0.1 mL blood samples were collected from the orbit before the administration and 0.25 h, 0.5 h, 1.0 h, 2.0 h, 4.0 h, 6.0 h, 8.0 h, 11.0 h and 24.0 h post-dose. The blood samples were placed into EDTA-K2 anticoagulation tubes and centrifuged at 10,000 rpm for 1 min (4° C.), and plasma was separated within 1 h and stored at −20° C. before analysis. The process from the blood collection to the centrifugation was performed in an ice bath. Access to food was given 2 h post-dose.
Measurement of plasma concentrations in SD rats after compounds were administered in different concentrations: 25 μL samples of the SD rat plasma collected at various time points post-dose were taken, and to each of the samples was added 25 μL of camptothecin (an internal standard for compound 2, 100 ng/mL) or 50 μL of tolbutamide (an internal standard for compound 7, 100 ng/mL) or 50 μL of verapamil (an internal standard for compounds 21 and 23, 100 ng/mL). Protein was precipitated with 200 μL of acetonitrile, and after 5 min of vortexing, the mixtures were centrifuged at 3700 rpm for 10 min. 120 µL of supernatant was taken and vortexed with 30 μL of water for 5 min, and a 5 μL sample was taken for LC/MS/MS analysis.

[2] = Pharmacokinetic evaluation in C57 mice; assay type: in vivo; conditions: for Vd / AUC(0-t) / half-life / Cmax / bioavailability / CL/F: both sexes, mouse, plasma; for Vd: read-out: Apparent distribution volume Vss; for AUC(0-t): read-out: Area under curve AUC0-t; for half-life: read-out: Half-life T½ (converted); for Cmax: read-out: Plasma concentration Cmax; for bioavailability: oral, i.g. 2.0 mg/kg vs i.v. 1.0 mg/kg, read-out: Bioavailability F (%); for CL/F: read-out: Clearance rate CL/F; for Clearance rate CL/F: i.v.
Method: as §1, with “C57 mice” for “SD rats”, “(i.g.)/intravenous (i.v.)” for “(i.g.)”, “C57 mice,” for “SD rats,”, “studied” for “studied,”
Compound 2 and compound 3.
36 C57 mice, of which half were male and half female, were evenly divided into 4 groups of 9, 3 mice per time point per group. The mice were provided by Vital River Laboratory Animal Technology Co., Ltd. The mice were intragastrically and intravenously administered the compounds.
as §2
A certain amount of test compound was weighed out and dissolved in 5% DMSO+5% tween 80+90% normal saline to prepare a 0.1 mg/mL colorless clear solution (for the intragastric administration groups) and a 0.1 mg/mL colorless clear solution (for the intravenous administration groups).
Intragastric administration groups: The dose was 2.0 mg/kg, and the volume was 0.2 mL/10 g.
Intravenous administration groups: The dose was 1.0 mg/kg, and the volume was 0.1 mL/10 g.
as §3, with “Intragastric administration groups: 0.1” for “0.1”, “collected” for “collected from the orbit”, “−80°” for “−20°”, “bath.” for “bath. Access to food was given 2 h post-dose.”
Intravenous administration groups: Blood samples were collected before administration and 5 min, 0.25 h, 0.5 h, 1.0 h, 2.0 h, 4.0 h, 8.0 h, 11.0 h and 24 h post-dose and were treated in the same way as those collected from the intragastric administration groups.
Measurement of plasma concentrations in C57 mice after compounds were administered in different concentrations: 25 μL samples of the C57 mouse plasma collected at various time points post-dose were taken, and to each of the samples was added 50 μL of diclofenac (an internal standard for compound 2, 100 ng/mL) or 25 μL of tolbutamide (an internal standard for compound 3, […], purchased from LGC Ltd., UK). Protein was precipitated with 200 μL of acetonitrile, and after 5 min of vortexing, the mixtures were centrifuged at 3700 rpm for 10 min. 120 μL of supernatant was taken and vortexed with 30 μL of water for 5 min, and a 5 μL sample was taken for LC/MS/MS analysis. 4. Pharmacokinetic parameters

Which Vd/F [1] does the source give for `COc1cccc(OC(F)(F)F)c1S(=O)(=O)Nc1noc2cc(Cn3cccn3)c3c(c12)OCC3` [Compound 23, N-(4-((1H-pyrazol-1-yl)methyl)-2,3-dihydrobenzofuro[7,6-d]isoxazol-8-yl)-2-methoxy-6-(trifluoromethoxy)benzenesulfonamide] here?
The Vd/F was 0.47 L/kg.

And the AUC(0-t) [1]?
Its AUC(0-t) is 61.2 µg·h/mL.

What about the CL/F [1] of the same compound?
The CL/F was 0.431 mL/min/kg.

What about the half-life [1] of the same compound?
The half-life was 13.7 h.

And the Cmax [1]?
The Cmax was 6240 ng/mL.

For `CCOc1cc(C)ccc1S(=O)(=O)Nc1noc2cc(Cn3cccn3)c3c(c12)OCCC3` [Compound 7, N-(5-((1H-pyrazol-1-yl)methyl)-3,4-dihydro-2H-chromeno[8,7-d]isoxazol-9-yl)-2-ethoxy-4-methylbenzenesulfonamide], which Vd/F [1] is on record?
Its Vd/F is 0.25 L/kg.

And the AUC(0-t) [1]?
The AUC(0-t) was 81.3 µg·h/mL.

What about the CL/F [1] of the same compound?
The CL/F was 0.614 mL/min/kg.

And the half-life [1]?
The half-life was 6.71 h.

What about the Cmax [1] of the same compound?
Its Cmax is 9200 ng/mL.

Which Vd ([2]; iv, 1.0 mg/kg) does the source give for `COc1ccccc1S(=O)(=O)Nc1noc2cc(Cn3cccn3)c3c(c12)OCCC3` [Compound 3, N-(5-((1H-pyrazol-1-yl)methyl)-3,4-dihydro-2H-chromeno[8,7-d]isoxazol-9-yl)-2-methoxybenzenesulfonamide] here?
The Vd was 0.102 L/kg.

What about the AUC(0-t) ([2]; iv, 1.0 mg/kg) of the same compound?
The AUC(0-t) was 209 µg·h/mL.

What about the half-life ([2]; iv, 1.0 mg/kg) of the same compound?
Its half-life is 49 h.

What about the Cmax ([2]; iv, 1.0 mg/kg) of the same compound?
Its Cmax is 22100 ng/mL.

And the bioavailability [2]?
Its bioavailability is 94.1%.

What about the AUC(0-t) ([2]; po, i.g., 2.0 mg/kg) of the same compound?
The AUC(0-t) was 393 µg·h/mL.

What about the CL/F ([2]; po, i.g., 2.0 mg/kg) of the same compound?
Its CL/F is 0.0225 mL/min/kg.

What about the half-life ([2]; po, i.g., 2.0 mg/kg) of the same compound?
Its half-life is 58.3 h.

And the Cmax ([2]; po, i.g., 2.0 mg/kg)?
Its Cmax is 33000 ng/mL.

And the “Clearance rate CL/F” value ([2]; 1.0 mg/kg)?
Its value is 0.0251 mL/min/kg.

With `COc1cccc(OC)c1S(=O)(=O)Nc1noc2cc(Cn3cccn3)c3c(c12)OCCC3` [Compound 2, N-(5-((1H-pyrazol-1-yl)methyl)-3,4-dihydro-2H-chromeno[8,7-d]isoxazol-9-yl)-2,6-dimethoxybenzenesulfonamide] as the compound, how does the Vd/F [1] read?
The Vd/F was 0.202 L/kg.

What about the AUC(0-t) [1] of the same compound?
Its AUC(0-t) is 43.3 µg·h/mL.

And the CL/F [1]?
Its CL/F is 0.8 mL/min/kg.

What about the half-life [1] of the same compound?
The half-life was 2.96 h.

What about the Cmax [1] of the same compound?
Its Cmax is 8210 ng/mL.

And the Vd ([2]; iv, 1.0 mg/kg)?
The Vd was 0.093 L/kg.

What about the AUC(0-t) ([2]; iv, 1.0 mg/kg) of the same compound?
The AUC(0-t) was 188 µg·h/mL.

And the half-life ([2]; iv, 1.0 mg/kg)?
The half-life was 18.4 h.

And the Cmax ([2]; iv, 1.0 mg/kg)?
The Cmax was 17600 ng/mL.

And the bioavailability [2]?
Its bioavailability is 108%.

And the AUC(0-t) ([2]; po, i.g., 2.0 mg/kg)?
Its AUC(0-t) is 405 µg·h/mL.

What about the CL/F ([2]; po, i.g., 2.0 mg/kg) of the same compound?
Its CL/F is 0.033 mL/min/kg.

And the half-life ([2]; po, i.g., 2.0 mg/kg)?
Its half-life is 29.7 h.

What about the Cmax ([2]; po, i.g., 2.0 mg/kg) of the same compound?
Its Cmax is 40100 ng/mL.

And the “Clearance rate CL/F” value ([2]; 1.0 mg/kg)?
Its value is 0.0504 mL/min/kg.
